Among the data in the supplement of paper PMC10307832 are relative viability values, retold here.

Experiment in all cases: relative viability (nuclei count vs DMSO), 5 days (fraction); higher = more cells survive
Compound in the assay “Kobe2602 + AZD7762”: C1=CC(=CC=C1NC(=S)NNC2=C(C=C(C=C2[N+](=O)[O-])C(F)(F)F)[N+](=O)[O-])F [Kobe2602] + NC(=O)Nc1cc(-c2cccc(F)c2)sc1C(=O)N[C@H]1CCCNC1 [AZD7762] (partner 0.2 µM)
The method in brief: (§1)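 Values are medians from duplicate plates. Each reflects relative viability, defined as the nuclei count of treated wells over that of vehicle wells. Lung cancer cell lines in 1536-well plates were pin-tool dosed one day after seeding with one drug alone or with a fixed anchor-drug dose plus five library-drug doses (not always all listed) in √10 steps, then fixed, stained and imaged at 4× after 5 days.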

Compound in the assay “Kobe2602 + Vorinostat”: C1=CC(=CC=C1NC(=S)NNC2=C(C=C(C=C2[N+](=O)[O-])C(F)(F)F)[N+](=O)[O-])F [Kobe2602] + O=C(CCCCCCC(=O)Nc1ccccc1)NO [Vorinostat] (partner 1 µM)
In outline: as §1

Compound in assay [1]: COc1cc2nccc(Oc3ccc(NC(=O)C4(C(=O)Nc5ccc(F)cc5)CC4)cc3)c2cc1OC [Cabozantinib] + CC(C)C[C@H](NC(=O)[C@H](Cc1ccccc1)NC(=O)c1cnccn1)B(O)O [Bortezomib] (partner 0.002 µM)
The method in brief: as §1

Compound in the assay “Cabozantinib + Alpelisib”: COc1cc2nccc(Oc3ccc(NC(=O)C4(C(=O)Nc5ccc(F)cc5)CC4)cc3)c2cc1OC [Cabozantinib] + Cc1nc(NC(=O)N2CCC[C@H]2C(N)=O)sc1-c1ccnc(C(C)(C)C(F)(F)F)c1 [Alpelisib] (partner 2 µM)
In outline: as §1

NCI-H1993: the relative viability in the assay with Kobe2602 + AZD7762 (first compound 0.2 µM) worked out at 0.812; with Kobe2602 + AZD7762 (first compound 0.6325 µM), 0.847; with Kobe2602 + AZD7762 (first compound 2 µM), 0.611; in the assay with Kobe2602 + AZD7762 (first compound 6.325 µM) it was 0.698; in the assay with Kobe2602 + AZD7762 (first compound 20 µM) it was 0.688; with Kobe2602 + Vorinostat (first compound 0.2 µM), 0.737. In addition, the relative viability with Kobe2602 + Vorinostat (first compound 0.6325 µM) came out at 0.817; with Kobe2602 + Vorinostat (first compound 2 µM), 0.782; with Kobe2602 + Vorinostat (first compound 6.325 µM), 0.586; with Kobe2602 + Vorinostat (first compound 20 µM), 0.728; in assay [1] (first compound 0.02 µM), 0.829; in assay [1] (first compound 0.06325 µM), 1.2. Besides, the relative viability in assay [1] (first compound 0.2 µM) is 0.716; in assay [1] (first compound 0.6325 µM), 0.816; in assay [1] (first compound 2 µM) it was 0.988; with Cabozantinib + Alpelisib (first compound 0.02 µM), 0.71; with Cabozantinib + Alpelisib (first compound 0.06325 µM), 0.719; in the assay with Cabozantinib + Alpelisib (first compound 0.2 µM) it was 0.662. For the same cell line, the relative viability with Cabozantinib + Alpelisib (first compound 0.6325 µM) is 0.713; with Cabozantinib + Alpelisib (first compound 2 µM) it was 0.798.
NCI-H2085: the relative viability with Kobe2602 + AZD7762 (first compound 0.2 µM) worked out at 0.931; with Kobe2602 + AZD7762 (first compound 0.6325 µM), 1.01; in the assay with Kobe2602 + AZD7762 (first compound 2 µM), 0.986; in the assay with Kobe2602 + AZD7762 (first compound 6.325 µM), 0.87; in the assay with Kobe2602 + AZD7762 (first compound 20 µM), 0.943; with Kobe2602 + Vorinostat (first compound 0.2 µM), 0.772. The relative viability amounted to 0.817 in the assay with Kobe2602 + Vorinostat (first compound 0.6325 µM); 0.794 with Kobe2602 + Vorinostat (first compound 2 µM); 0.765 with Kobe2602 + Vorinostat (first compound 6.325 µM); 0.733 with Kobe2602 + Vorinostat (first compound 20 µM); 1.22 in assay [1] (first compound 0.02 µM); 1.14 in assay [1] (first compound 0.06325 µM). Also, the relative viability in assay [1] (first compound 0.2 µM) amounted to 1.08; in assay [1] (first compound 0.6325 µM), 1.01; in assay [1] (first compound 2 µM), 1.03; with Cabozantinib + Alpelisib (first compound 0.02 µM) it was 1.15; with Cabozantinib + Alpelisib (first compound 0.06325 µM), 1.01; in the assay with Cabozantinib + Alpelisib (first compound 0.2 µM), 0.982. The relative viability with Cabozantinib + Alpelisib (first compound 0.6325 µM) worked out at 0.915; in the assay with Cabozantinib + Alpelisib (first compound 2 µM), 0.843.
For the cell line NCI-H2087, the relative viability with Kobe2602 + AZD7762 (first compound 0.2 µM) worked out at 1.24; with Kobe2602 + AZD7762 (first compound 0.6325 µM), 1.22; with Kobe2602 + AZD7762 (first compound 2 µM), 1.22; with Kobe2602 + AZD7762 (first compound 6.325 µM), 1.32; in the assay with Kobe2602 + AZD7762 (first compound 20 µM), 1.13; with Kobe2602 + Vorinostat (first compound 0.2 µM) it was 0.628. Besides, the relative viability amounted to 0.799 with Kobe2602 + Vorinostat (first compound 0.6325 µM); 0.64 with Kobe2602 + Vorinostat (first compound 2 µM); 0.714 with Kobe2602 + Vorinostat (first compound 6.325 µM); 0.568 in the assay with Kobe2602 + Vorinostat (first compound 20 µM); 0.863 in assay [1] (first compound 0.02 µM); 1.04 in assay [1] (first compound 0.06325 µM). Moreover, the relative viability in assay [1] (first compound 0.2 µM) worked out at 0.702; in assay [1] (first compound 0.6325 µM), 0.661; in assay [1] (first compound 2 µM), 0.815; with Cabozantinib + Alpelisib (first compound 0.02 µM), 1.07; with Cabozantinib + Alpelisib (first compound 0.06325 µM), 1.12; with Cabozantinib + Alpelisib (first compound 0.2 µM) it was 0.978. Also, the relative viability with Cabozantinib + Alpelisib (first compound 0.6325 µM) was 1.03; with Cabozantinib + Alpelisib (first compound 2 µM) it was 0.995.
With NCI-H2126, the relative viability in the assay with Kobe2602 + AZD7762 (first compound 0.2 µM) came out at 1.07; with Kobe2602 + AZD7762 (first compound 0.6325 µM), 1.01; in the assay with Kobe2602 + AZD7762 (first compound 2 µM), 1.09; with Kobe2602 + AZD7762 (first compound 6.325 µM) it was 1.08; with Kobe2602 + AZD7762 (first compound 20 µM), 0.988; with Kobe2602 + Vorinostat (first compound 0.2 µM), 0.811. In addition, the relative viability was found to be 0.819 with Kobe2602 + Vorinostat (first compound 0.6325 µM); 0.737 with Kobe2602 + Vorinostat (first compound 2 µM); 0.76 with Kobe2602 + Vorinostat (first compound 6.325 µM); 0.855 with Kobe2602 + Vorinostat (first compound 20 µM); 1.13 in assay [1] (first compound 0.02 µM); 1.11 in assay [1] (first compound 0.06325 µM). For the same cell line, the relative viability in assay [1] (first compound 0.2 µM) is 1.1; in assay [1] (first compound 0.6325 µM), 1.14; in assay [1] (first compound 2 µM), 1.11; with Cabozantinib + Alpelisib (first compound 0.02 µM), 0.798; with Cabozantinib + Alpelisib (first compound 0.06325 µM), 0.764; with Cabozantinib + Alpelisib (first compound 0.2 µM), 0.73. Further, the relative viability in the assay with Cabozantinib + Alpelisib (first compound 0.6325 µM) turned out to be 0.755; in the assay with Cabozantinib + Alpelisib (first compound 2 µM), 0.765.
Take NCI-H2347: the relative viability in the assay with Kobe2602 + AZD7762 (first compound 0.2 µM) was 0.85; with Kobe2602 + AZD7762 (first compound 0.6325 µM) it was 0.77; in the assay with Kobe2602 + AZD7762 (first compound 2 µM), 0.798; with Kobe2602 + AZD7762 (first compound 6.325 µM) it was 0.713; with Kobe2602 + AZD7762 (first compound 20 µM), 0.806; with Kobe2602 + Vorinostat (first compound 0.2 µM), 0.523. The relative viability with Kobe2602 + Vorinostat (first compound 0.6325 µM) worked out at 0.696; in the assay with Kobe2602 + Vorinostat (first compound 2 µM), 0.732; with Kobe2602 + Vorinostat (first compound 6.325 µM), 0.661; with Kobe2602 + Vorinostat (first compound 20 µM), 0.705; in assay [1] (first compound 0.02 µM), 0.875; in assay [1] (first compound 0.06325 µM), 1.34. Also, the relative viability came out at 0.944 in assay [1] (first compound 0.2 µM); 0.963 in assay [1] (first compound 0.6325 µM); 0.666 in assay [1] (first compound 2 µM); 1.2 with Cabozantinib + Alpelisib (first compound 0.02 µM); 1.15 with Cabozantinib + Alpelisib (first compound 0.06325 µM); 1.01 with Cabozantinib + Alpelisib (first compound 0.2 µM). The relative viability is 0.985 in the assay with Cabozantinib + Alpelisib (first compound 0.6325 µM) and 0.668 with Cabozantinib + Alpelisib (first compound 2 µM).
